Results reported in PMC6155332, “Antimalarials with Benzothiophene Moieties as Aminoquinoline Partners” (Molecules : A Journal of Synthetic Chemistry and Natural …, 2017).
pIC50: −log10 of the molar value. “And” between values parts separate entries of the source, which are not always exact repeats. Identical values can stand only once.

Key:
[1] = test system: P. falciparum D6 (CQ susceptible (CQS) strain); assay: Malaria SYBR Green Fluorescence Assay, D6 strain; type: cell-based; conditions: Plasmodium falciparum; CQ susceptible African D6 clone; read-out: In Vitro Antimalarial Activity (P. falciparum, IC50, nM) D6
[2] = test system: P. falciparum W2 (CQ resistant (CQR) strain); assay: microbe, parasite or virus in culture; type: cell-based, Plasmodium falciparum; conditions: for RI W2/D6 (resistance index): IC50 W2 / IC50 D6; for IC50: Plasmodium falciparum, W2, read-out: In Vitro Antimalarial Activity (P. falciparum, IC50, nM) W2
[3] = test system: P. falciparum TM91C235 (Thailand, multidrug-resistant (MDR) strain); assay: Malaria SYBR Green Fluorescence Assay, TM91C235 strain; type: cell-based; conditions: Plasmodium falciparum, read-out: In Vitro Antimalarial Activity (P. falciparum, IC50, nM) C235
[4] = test system: HepG2 (hepatocellular carcinoma) cell line; assay: Compound toxicity in HepG2 cell line; type: cell-based, human; conditions: for pIC50: Homo sapiens, HepG2, hepatocellular carcinoma cells; for SI HepG2/D6 (selectivity index): IC50 HepG2 / IC50 D6
Method: To investigate possible toxicity issues, the synthesized compounds were evaluated in vitro against a human hepatoma cell line (HepG2).
Synthesized aminoquinolines were screened in vitro against P. falciparum strains: CQ and MFQ susceptible strain D6 (clone of Sierra Leone/UNC isolate), CQ resistant but MFQ susceptible strain W2 (clone of Indochina isolate), and CQ and MFQ resistant strain TM91C235 (clone of South East Asian isolate) using the Malaria SYBR Green Fluorescence Assay. Full method details are given in Supplementary Materials I. Assessment of compound toxicity in a HepG2 (hepatocellular carcinoma) cell line followed the protocol described in Ref. [40].

[5] = test system: P. berghei (ANKA); assay: Modified Thompson test, P. berghei mouse efficacy; type: in vivo, Plasmodium berghei
Method: In a separate host toxicity study, benzothiophene 25 was subjected to in vivo toxicity evaluation. […]
The P. berghei (ANKA) mouse efficacy tests were conducted using a modified version of the Thompson test. Groups of five mice were inoculated intraperitoneally with erythrocytes infected with P. berghei on day 0. Drugs were suspended in 0.5% hydroxyethylcellulose-0.1% Tween 80 and administered orally once a day beginning on day 3 post infection. […] Cure was defined as survival (with no parasitemia) until day 31 post-treatment. Parasitemia was determined by thin-blood Giemsa-stained smears prepared from mice tail blood of each animal on days 0, 3, 6, 10, 13, 17, 20, 24, 27, and 31 (postinfection). The slides were examined under a light microscope.

[6] = test system: healthy mice; assay: Host toxicity study in healthy mice; type: in vivo; conditions: 160 mg/kg/day × 3 days
Method: In a separate host toxicity study, groups of five healthy mice were administered 160 mg/kg/day × 3 days of the investigational compounds and individually monitored for behavior and appearance two times a day for 31 days. No toxicity was defined as survival past day 31 with no overt clinical manifestations of toxicity (changes in behavior and appearance).

[7] = infected mice, 160 mg/kg/day p.o., days 3–5 postinfection

SMILES	IC50 [1] [nM]	RI W2/D6 (resistance index) [2]	IC50 [2] [nM]	IC50 [3] [nM]	pIC50 [4]	SI HepG2/D6 (selectivity index) [4]	Parasitemia D24 ([5]; 160 mg/kg/day p.o. days 3–5, day 24) [%]	Mean Survival Time (MST, Days) [5, 7] [days]	Mice Alive on Day 31 [5, 7]	Mice Dead/Day Died ([5]; infected mice, 160 mg/kg/day p.o., days 3–5 postinfection, 160 mg/kg/day)	Mice survived in host toxicity study ([6]; groups of 5 healthy mice)	Host toxicity (toxic / non-toxic) ([6]; healthy mice, orally)	Parasitemia D6-D31 ([5]; 160 mg/kg/day p.o. days 3–5, days 6–31) [mice negative]
N#Cc1ccc(-c2ccc(-c3ccc(CNCCNc4ccnc5cc(Cl)ccc45)cc3)s2)cc1 [Compound 37]	49	0.5	26	60	< 4.51								
c1ccc2sc(CNCCCCNc3ccnc4ccccc34)cc2c1 [Compound 9]	14	13.6	191	205	5.31	339							
N#Cc1ccc(-c2ccc(-c3ccc(CNCCCCCCCCNc4ccnc5cc(Cl)ccc45)cc3)s2)cc1 [Compound 42]	55	0.2	12	30	5.68	38	75	18.6	0/5	1/9 and 1/13 and 1/20 and 1/23 and 1/28	5	non-toxic	
N#Cc1ccc(-c2ccc(-c3ccc(CNCCCNc4ccnc5cc(Cl)ccc45)cc3)s2)cc1 [Compound 38]	84	0.2	20	43	5.59	30							
N#Cc1ccc(-c2ccc(-c3ccc(CNCCCCNc4ccnc5cc(Cl)ccc45)cc3)s2)cc1 [Compound 39]	59	0.8	46	52	< 5.24								
c1ccc2sc(CNCCCNc3ccnc4ccccc34)cc2c1 [Compound 8]	20	5.2	104	107	5.05	440							
N#Cc1ccc2scc(-c3ccc(CNCCCCCCNc4ccnc5ccccc45)cc3)c2c1 [Compound 30]	12	6.8	81	51	5.70	162							
Fc1ccc2scc(CNCCCCNc3ccnc4ccccc34)c2c1 [Compound 13]	16	12.6	201	177	5.56	172							
OC(c1cc(C(F)(F)F)nc2c(C(F)(F)F)cccc12)C1CCCCN1 (centres unmarked) [MFQ, mefloquine, reference compound]	23	0.3	7	55									
N#Cc1ccc(-c2ccc(-c3ccc(CNCCCCCNc4ccnc5cc(Cl)ccc45)cc3)s2)cc1 [Compound 40]	80	0.5	41	54	5.17	84							
Fc1ccc2scc(-c3ccc(CNCCCCCCNc4ccnc5ccccc45)cc3)c2c1 [Compound 24]	60	4.6	277	242	5.65	37							
CC(CCCN(C)Cc1ccc(-c2csc3ccc(F)cc23)cc1)Nc1ccnc2ccccc12 (centres unmarked) [Compound 27]	29	4.3	126	126	5.30	173							
Fc1ccc2c(CNCCCNc3ccnc4ccccc34)csc2c1 [Compound 12]	21	8.8	185	191	5.35	211							
CC(CCCNCc1ccc(-c2csc3ccc(C#N)cc23)cc1)Nc1ccnc2ccccc12 (centres unmarked) [Compound 29]	13	3.4	44	46	5.62	192							
N#Cc1ccc(-c2ccc(-c3ccc(CNCCCCCCNc4ccnc5cc(Cl)ccc45)cc3)s2)cc1 [Compound 41]	27	0.5	13	20	5.62	89							
N#Cc1ccc2scc(-c3ccc(CNCCCCNc4ccnc5ccccc45)cc3)c2c1 [Compound 28]	6	31.3	188	129	5.59	401							
N#Cc1ccc(-c2ccc(-c3ccc(CNCCCCCCNc4ccnc5ccccc45)cc3)s2)cc1 [Compound 44]	101	0.7	74	54	5.39	40							
C#Cc1ccc(-c2ccc(-c3ccc(CNCCCCCCCCNc4ccnc5ccccc45)cc3)s2)cc1 [Compound 52]	177	1.5	259	274	5.03	52							
Fc1ccc2scc(-c3ccc(CNCCCNc4ccnc5ccccc45)cc3)c2c1 [Compound 23]	28	5.1	144	111	5.42	136							
CC(CCCNCc1ccc(-c2csc3ccc(F)cc23)cc1)Nc1ccnc2ccccc12 (centres unmarked) [Compound 26]	36	1.5	55	45	5.63	65							
CCN(CC)CCCC(C)Nc1ccnc2cc(Cl)ccc12 (centres unmarked) [CQ, chloroquine, reference compound]	15		595	206				>31	5/5				5
N#Cc1ccc2c(-c3ccc(CNCCCCNc4ccnc5ccccc45)cc3)csc2c1 [Compound 31]	13	15.2	197	93	5.45	276							
N#Cc1ccc2c(-c3ccc(CNCCCCCCNc4ccnc5ccccc45)cc3)csc2c1 [Compound 32]	55	1.8	102	29	5.69	37							
N#Cc1ccc(-c2ccc(-c3ccc(CNCCCCNc4ccnc5ccccc45)cc3)s2)cc1 [Compound 43]	4	26	106	34	5.09	2038							
